Reference: ChEMBL document CHEMBL5712922, “Synergistic effects of type I PRMT and PARP inhibitors against non-small cell lung cancer cells” (Clin Epigenetics, 2021)
Structures can show the parent of a compound that is named as a salt.

Test system: A549
Experiment: Antiproliferative against human A549 cells assessed as viable cells pretreated with MS023 for 24 hrs followed by compound addition at 10 uM measured after for 24 hrs relative to control
Conditions: A549, 24 h, read-out: Activity

## Cc1cc(Nc2cc(CN3CCOCC3)c3nc(C)c(Cc4ccc(Cl)cc4F)n3n2)n[nH]1 [GANDOTINIB]
  viability at 10 µM: 54.2%

## COc1cc2c(cc1OCCCN1CCCC1)N=C(N)C21CCC1
  viability at 10 µM: 54.2%

## Cn1cc(CNCC2CCN(c3ncc(C(=O)NO)cn3)CC2)c2ccccc21 [QUISINOSTAT HYDROCHLORIDE]
  viability at 10 µM: 54.2%

## CCCc1cc2c(N3CCN(C4=NCC(C)(C)S4)CC3)ncnc2s1
  viability at 10 µM: 54.2%

## CC(C)N(C[C@H]1O[C@@H](n2cnc3c(N)ncnc32)[C@H](O)[C@@H]1O)[C@H]1C[C@@H](CCc2nc3cc(C(C)(C)C)ccc3[nH]2)C1 [PINOMETOSTAT]
  viability at 10 µM: 54.2%

## O=C(O)[C@]1(Cc2cccc(Nc3nccs3)n2)CC[C@@H](Oc2cccc(Cl)c2F)CC1 [MK-5108]
  viability at 10 µM: 54.2%

## O=C(CCCCCCNC(=O)c1cnc(N(c2ccccc2)c2ccccc2)nc1)NO [RICOLINOSTAT]
  viability at 10 µM: 54.2%

## CN(C)Cc1ccc(S(=O)(=O)n2ccc(/C=C/C(=O)NO)c2)cc1 [RESMINOSTAT]
  viability at 10 µM: 54.2%

## C/C(=N\NC(=O)c1cccc(S(=O)(=O)N2CCOCC2)c1)c1cc(Cl)ccc1O
  viability at 10 µM: 54.2%

## N#Cc1ccc(-c2csc(NN=C3CCCC3)n2)cc1
  viability at 10 µM: 54.2%

## CCNC(=O)C[C@@H]1N=C(c2ccc(Cl)cc2)c2cc(OC)ccc2-n2c(C)nnc21 [MOLIBRESIB]
  viability at 10 µM: 54.2%

## Cc1cc(Nc2cc(N3CCN(C)CC3)nc(/C=C/c3ccccc3)n2)n[nH]1 [ENMD-2076]
  viability at 10 µM: 54.2%

## COc1ccc(CCc2nc3cc(-c4c(C)noc4C)ccc3n2C[C@H](C)N2CCOCC2)cc1Cl
  viability at 10 µM: 54.2%

## NC1=NC(=O)/C(=C\c2ccc(O)cc2)S1
  viability at 10 µM: 54.2%

## CC(C)c1cc2c(N3CCN(C4=NCC(C)(C)S4)CC3)ncnc2s1
  viability at 10 µM: 54.2%

## CCN(CC)CCNC(=O)c1ccc(N)cc1 [PROCAINAMIDE HYDROCHLORIDE]
  viability at 10 µM: 54.2%
